For the assay, the target named is T1, L type amino acid transporter 1 (LAT1) (Homo sapiens, UniProt Q01650).
T1 construct: gene SLC7A5; with 4F2 heavy chain (4F2hc)
Kind of assay: inhibition of […] L-leucine uptake ([…] min, […] °C) in MDA-MB-231 cells (endogenous LAT1); […] in T-47D cells. The format is cell-based.

IC50 data for 1 compound are collected here from PMC8770514, “Induction of CTH expression in response to amino acid starvation confers resistance to anti-LAT1 therapy in MDA-MB-231 cells” (Scientific Reports, 2022).

T1 sequence (Q01650 whole entry): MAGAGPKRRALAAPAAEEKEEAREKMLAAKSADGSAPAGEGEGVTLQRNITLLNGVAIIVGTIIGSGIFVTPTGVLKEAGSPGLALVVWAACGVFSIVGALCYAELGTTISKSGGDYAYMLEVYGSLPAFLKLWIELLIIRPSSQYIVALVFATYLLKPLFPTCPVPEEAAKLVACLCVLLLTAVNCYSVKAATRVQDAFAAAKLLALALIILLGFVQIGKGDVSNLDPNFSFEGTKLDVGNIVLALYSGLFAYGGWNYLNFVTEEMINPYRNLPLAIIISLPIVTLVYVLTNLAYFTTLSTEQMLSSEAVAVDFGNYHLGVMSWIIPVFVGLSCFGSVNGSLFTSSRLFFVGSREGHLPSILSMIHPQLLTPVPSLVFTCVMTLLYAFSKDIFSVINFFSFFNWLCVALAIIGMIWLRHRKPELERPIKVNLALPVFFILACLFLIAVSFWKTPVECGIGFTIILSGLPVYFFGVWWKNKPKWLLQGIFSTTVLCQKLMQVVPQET
T1 sequence (P08195 103-630 partner): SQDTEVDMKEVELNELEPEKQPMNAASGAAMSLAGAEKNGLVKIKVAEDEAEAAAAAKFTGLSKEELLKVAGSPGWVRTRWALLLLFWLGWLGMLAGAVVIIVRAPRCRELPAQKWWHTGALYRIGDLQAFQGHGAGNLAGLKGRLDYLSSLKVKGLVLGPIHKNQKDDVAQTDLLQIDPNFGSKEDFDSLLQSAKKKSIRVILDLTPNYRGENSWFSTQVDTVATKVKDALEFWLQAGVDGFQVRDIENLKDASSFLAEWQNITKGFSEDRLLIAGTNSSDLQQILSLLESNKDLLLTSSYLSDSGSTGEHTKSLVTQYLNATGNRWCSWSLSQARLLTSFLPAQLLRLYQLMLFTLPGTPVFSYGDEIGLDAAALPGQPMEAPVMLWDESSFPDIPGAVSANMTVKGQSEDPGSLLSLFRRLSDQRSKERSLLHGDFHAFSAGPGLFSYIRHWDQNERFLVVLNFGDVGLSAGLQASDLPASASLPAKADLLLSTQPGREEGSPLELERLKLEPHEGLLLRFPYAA

Compound `Nc1cc(COc2c(Cl)cc(C[C@H](N)C(=O)O)cc2Cl)c2oc(-c3ccccc3)nc2c1` [JPH203, (S)-2-amino-3-(4-((5-amino-2-phenylbenzo[d]oxazol-7-yl)methoxy)-3,5-dichlorophenyl)-propanoic acid] displayed an IC50 of 60 ± 20 nM.
